Source: US6894073B2, “Use of diterpene compound as a therapeutic agent of inflammation, immune disease or cancer” (Korea Research Institute of Bioscience and Biotechnology, priority 2000, dated 2005)

Key:
[1] = test system: nitric oxide (NO); assay: Inhibition of NO production (nitrite, Griess reagent) in LPS-stimulated Raw 264.7 macrophage cells; format: cell-based, murine; settings: for NO: 1 μg/ml LPS, 24 hours; for inhibition at 0.03 µg/mL / inhibition at 0.3 µg/mL / inhibition at 3 µg/mL: read-out: Inhibition rate (%) of NO production; for IC50: LPS-stimulated Raw 264.7 cells
Description: To investigate whether kaurane diterpene compounds obtained in Example 1 can inhibit the production of nitric oxide (NO) which induces apoptosis of the immune and neuron cells, the present inventors measured the amount of nitrite (NO2) accumulated in the culture medium of LPS-stimulated murine macrophage cells, which were treated with four kaurane diterpene compounds, kamebanin, kamebacetal A, kamebakaurin, or exisanin A.
In detail, Raw 264.7 murine macrophage cells (ATCC TIB-71) in DMEM medium were seeded to 96-well plate at a cell density of 1×10^5 cells/well and incubated for 3 hours at 37° C., 5% CO2 incubator. To induce NO synthesis in the macrophage cell, 1 μg/ml of LPS and 3 μg/ml, 0.3 μg/ml, and 0.03 μg/ml of kaurane diterpene compounds of the present invention were added to the medium and the plate was incubated for 24 hours. The amount of NO2, the final oxidation product of NO induced by the LPS in the medium was measured as followed. After collecting and centrifuging incubated medium, 100 μl of Griess reagent was added into 100 μl of each culture medium. Then, the medium was incubated for ten minutes at room temperature and absorbance at 550 nm wavelength was measured. Griess reagent was prepared by mixing a solution, wherein 1% sulfanilamide was dissolved in 5% phosphoric acid, and a solution of 0.1% naphyhylethylenediamine-HCl by a 1:1 ratio. To measure the amount of standard NO synthesis, NaNO2 was serially diluted and the absorbance was measured after reacting it with Griess reagent. From this, the standard curve for the amount of NO production was obtained. The amount of NO production in the culture medium treated with each compound was estimated using standard curve for NO determination.

[2] = test system: NF-κB; assay: NF-κB activation, SEAP reporter in LPS-stimulated RAW-NF-AP cells; format: cell-based, murine; settings: for inhibition at 0.03 µg/mL / inhibition at 0.3 µg/mL / inhibition at 3 µg/mL / IC50: Mus musculus; for inhibition at 0.03 µg/mL: 0.03 μg/ml compound; for inhibition at 0.03 µg/mL / inhibition at 0.3 µg/mL / inhibition at 3 µg/mL: 1 μg/ml LPS, 16 hours; for inhibition at 0.3 µg/mL: 0.3 μg/ml compound; for inhibition at 3 µg/mL: 3 μg/ml compound; for IC50: RAW-NF-AP cells, LPS
Description: RAW-NF-AP cells, which can be used effectively to detect the NF-κB dependent expression of reporter gene, (Korean Patent Application No. 1999-0006025), were seeded to a 96-well plate at a cell density of 1×10^5 cell/well and were incubated for 3 hours at 37° C. in a 5% CO2 incubator. Thereafter, 1 μg/ml concentration of LPS and 0.03 μg/ml, 0.3 μg/ml, and 3 μg/ml concentrations of kaurane diterpene compounds of the present invention were added to each well and was incubated for 16 hours. After collecting supernatant by centrifugation, the amount of secreted alkaline phosphatase (SEAP) in the culture medium of which expression is regulated by the activation of NF-κB was quantified.

[3] = test system: TNF-α; assay: Inhibition of TNF-α production in LPS-stimulated Raw 264.7 cells (enzyme immunometric assay); format: cell-based, murine; settings: for TNF-α: 1 μg/ml LPS, 16 hours; for inhibition at 0.03 µg/mL / inhibition at 0.3 µg/mL / inhibition at 3 µg/mL / IC50: Mus musculus, RAW264.7; for inhibition at 0.03 µg/mL / inhibition at 0.3 µg/mL / inhibition at 3 µg/mL: read-out: Inhibition rate (%) of TNF-α production; for IC50: LPS-stimulated Raw 264.7 cells
Description: To investigate whether kaurane diterpene compounds obtained in Example 1 can inhibit effectively the production of tumor necrosis factor-α (TNF-α), one of the inflammatory mediator, which confers cytotoxic effect and induces the production of prostaglandin and cytokines, the present inventors measured the amount of TNF-α accumulated in the culture medium of LPS-stimulated murine macrophage cells, which were treated with four kaurane diterpene compounds, kamebanin, kamebacetal A, kamebakaurin, or exisanin A.
In detail, Raw 264.7 cells in DMEM medium were seeded to a 96-well plate at a cell density of 1×10^5 cells/well and were incubated for 3 hours at 37° C. in a 5% CO2 incubator. To each well were added 1 μg/ml of LPS and 3 μg/ml, 0.3 μg/ml, and 0.03 μg/ml concentrations of kaurane diterpene compounds of the present invention and was incubated for 16 hours. After collecting supernatant by centrifugation, the amount of TNF-α in the culture medium was quantified by enzyme immunometric assay.

[4] = test system: adjuvant arthritis model; assay: Adjuvant arthritis model, paw volume; format: in vivo, Sprague-Dawley rat; settings: day 16-22, paw volume on 23rd day
Description: Finding the inhibitory effect of kaurane diterpene compounds on the production of NO, prostaglandin, and TNF, and on the activation of NF-κB in the murine macrophage cells stimulated by LPS, the present inventors investigated the pharmacological efficacy of kaurane diterpene compounds with a adjuvant arthritis model according to the method of Futaki et al. (General Pharmacology, 1993, 24, 105-110). To prepare animal model of the arthritis, 0.05 ml of 0.1% Mycobacterium butyricum suspended in Freud adjuvant (Sigma, USA) was injected intradermally to the left hind paw of the male Sprague-Dawley rat of 180 g weight. On the fifteenth day after injection, the volume of the right paw of the rats was measured using plethysmometer (Ugo-Basile, Italy), and only the rats having arthritis on the right leg were selected. Thereafter, the selected rats were divided into four groups, six rats per each group. Four kinds of kaurane diterpene compounds of the present invention were administered orally to each groups everyday from the sixteenth day to twenty-second day with doses of 3 mg/kg/day, 10 mg/kg/day, and 20 mg/kg/day in the form of the suspended solution with 0.1% methylcellulose. The inhibition rate of arthritis was calculated by comparing the volume of the paw with that of the control on the 23rd day.

[5] = test system: prostaglandin E2; assay: Inhibition of prostaglandin E2 production in LPS-stimulated Raw 264.7 cells (enzyme immunometric assay); format: cell-based, murine; settings: for PGE2: 1 μg/ml LPS, 16 hours; for inhibition at 0.03 µg/mL / inhibition at 0.3 µg/mL / inhibition at 3 µg/mL / IC50: Mus musculus, RAW264.7; for inhibition at 0.03 µg/mL / inhibition at 0.3 µg/mL / inhibition at 3 µg/mL: read-out: Inhibition rate (%) of prostaglandin E2 production; for IC50: LPS-stimulated Raw 264.7 cells
Description: To investigate whether kaurane diterpene compounds obtained in Example 1 can inhibit the production of prostaglandin, which induces inflammatory reaction, the present inventors measured the amount of prostaglandin E2 accumulated in the culture medium of LPS-stimulated murine macrophage cells, which were treated with four kaurane diterpene compounds, kamebanin, kamebacetal A, kamebakaurin, or exisanin A.
In detail, Raw 264.7 cells in DMEM medium were seeded to a 96-well plate at a cell density of 1×10^5 cells/well and were incubated for 18 hours. Cyclooxygenase-1, the constitutive rate-determining enzyme of the prostaglandin synthesis was inactivated by incubating for 3 hrs with 500 μM of aspirin and each well was washed two times with PBS (phosphate-buffered saline). To each well were added 1 μg/ml of LPS and 3 μg/ml, 0.3 μg/ml, and 0.03 μg/ml concentrations of kaurane diterpene compounds of the present invention and was incubated for 16 hours. After collecting supernatant by centrifugation, the amount of prostaglandin in the culture medium was quantified by enzyme immunometric assay.

[6] = Mus musculus, RAW264.7, 0.03 μg/ml compound
[7] = Mus musculus, RAW264.7, 0.3 μg/ml compound
[8] = Mus musculus, RAW264.7, 3 μg/ml compound

SMILES | NO ([1]; 0.03 μg/ml compound) [µM] | NO ([1]; 0.3 μg/ml compound) [µM] | NO ([1]; 3 μg/ml compound) [µM] | inhibition at 0.03 µg/mL [1, 6] [%] | inhibition at 0.3 µg/mL [1, 7] [%] | inhibition at 3 µg/mL [1, 8] [%] | IC50 ([1]; Mus musculus, RAW264.7) [µM] | inhibition at 0.03 µg/mL [2] [%] | inhibition at 0.3 µg/mL [2] [%] | inhibition at 3 µg/mL [2] [%] | IC50 [2] [µM] | TNF-α ([3]; 0.03 μg/ml compound) [pg/mL] | TNF-α ([3]; 0.3 μg/ml compound) [pg/mL] | TNF-α ([3]; 3 μg/ml compound) [pg/mL] | inhibition at 0.03 µg/mL ([3]; 0.03 μg/ml compound) [%] | inhibition at 0.3 µg/mL ([3]; 0.3 μg/ml compound) [%] | inhibition at 3 µg/mL ([3]; 3 μg/ml compound) [%] | IC50 [3] [µM] | Inhibition rate (%) of arthritis ([4]; 3 mg/kg/day oral) [%] | Inhibition rate (%) of arthritis ([4]; 10 mg/kg/day oral) [%] | also measured
C=C1C(=O)[C@@]23C(C[C@H](O)[C@@H]1[C@H]2O)[C@@]1(C)C(C[C@H]3O)C(C)(C)CC[C@@H]1O (stereo partly shown) [Exisanin A, exisanin A] | 32.5 ± 3.5 | 22.2 ± 2.3 | 6.7 ± 0.8 | 37 | 59.3 | 92.5 | 0.35 | -2.6 | 19.4 | 93.7 | 1.66 | 1243.0 ± 195.6 | 936.1 ± 0.00 | 103.2 ± 12.8 | 25.8 | 44.4 | 94.8 | 0.61 | 33 ± 14 | 52 ± 12 | Inhibition rate (%) of arthritis ([4]; 20 mg/kg/day oral): 64 ± 13%; PGE2 ([5]; 0.03 μg/ml compound): 13.7 ± 0.3 ng/mL; PGE2 ([5]; 0.3 μg/ml compound): 10.7 ± 1.3 ng/mL; PGE2 ([5]; 3 μg/ml compound): 5.7 ± 0.7 ng/mL; inhibition at 0.03 µg/mL ([5]; 0.03 μg/ml compound): -16.1%; inhibition at 0.3 µg/mL ([5]; 0.3 μg/ml compound): 11.7%; inhibition at 3 µg/mL ([5]; 3 μg/ml compound): 57.7%; IC50 [5]: 5.37 µM
C=C1C(=O)[C@@]23C4CC5C(C)(C)CC[C@H](O)[C@@]5(C(OC)O4)C2CC[C@@H]1[C@H]3O (stereo partly shown) [Kamebacetal A, kamebacetal A] | 38.5 ± 4.8 | 19.9 ± 3.7 | 3.3 ± 0.7 | 23.9 | 64.2 | 100 | 0.584 | 1.3 | 62.2 | 110 | 2.45 | 1495.0 ± 239.7 | 691.4 ± 152.7 | 38.9 ± 1.0 | 10.5 | 59.2 | 98.7 | 0.6 | 33 ± 18 | 55 ± 10 | NO production compared with negative control (no LPS) ([1]; 3 μg/ml): nearly the same as that of the negative control; IC50 [1]: 0.58 µM; SEAP activity compared with negative control (no LPS) ([2]; 3 μg/ml): to the extent of negative control; Inhibition rate (%) of arthritis ([4]; 20 mg/kg/day oral): 69 ± 14%; PGE2 ([5]; 0.03 μg/ml compound): 13.2 ± 0.8 ng/mL; PGE2 ([5]; 0.3 μg/ml compound): 9.8 ± 1.4 ng/mL; PGE2 ([5]; 3 μg/ml compound): 2.7 ± 0.4 ng/mL; inhibition at 0.03 µg/mL ([5]; 0.03 μg/ml compound): -11.3%; inhibition at 0.3 µg/mL ([5]; 0.3 μg/ml compound): 19.6%; inhibition at 3 µg/mL ([5]; 3 μg/ml compound): 85.6%; IC50 [5]: 2.8 µM
C=C1C(=O)[C@@]23[C@H](O)C[C@@H]4C(C)(C)CC[C@H](O)[C@@]4(C)[C@@H]2CC[C@@H]1[C@H]3O [Kamebanin, kamebanin] | 23.4 ± 1.3 | 4.6 ± 0.6 | 3.6 ± 0.3 | 56.5 | 97.2 | 99.3 | 0.06 | 0.6 | 48.5 | 99.7 | 0.72 | 1835.0 ± 158.8 | 805.6 ± 195.4 | 19.8 ± 0.7 | -10 | 52.3 | 99.8 | 1 | 30 ± 15 | 50 ± 12 | Inhibition rate (%) of arthritis ([4]; 20 mg/kg/day oral): 68 ± 14%; PGE2 ([5]; 0.03 μg/ml compound): 14.4 ± 2.2 ng/mL; PGE2 ([5]; 0.3 μg/ml compound): 4.0 ± 0.3 ng/mL; Prostaglandin production compared with negative control (no LPS) ([5]; 3 μg/ml): nearly the same as that of the negative control; PGE2 ([5]; 3 μg/ml compound): 0.7 ± 0.1 ng/mL; inhibition at 0.03 µg/mL ([5]; 0.03 μg/ml compound): -22.5%; inhibition at 0.3 µg/mL ([5]; 0.3 μg/ml compound): 73.9%; inhibition at 3 µg/mL ([5]; 3 μg/ml compound): 104%; IC50 [5]: 0.88 µM
